Results: article PMC1884159, “The crystal structure of Escherichia coli TdcF, a member of the highly conserved YjgF/YER057c/UK114 family” (BMC Structural Biology, 2007)

How the values were obtained:
TdcF [1] = molecular target: T1, TdcF (Escherichia coli, UniProt P0AGL2); test: X-ray crystal structure, crystal soak; format: binding; conditions: 1 mM soak, 2 h, pH 8
T1 construct: recombinant, N-terminal His-tag not cleaved; homotrimer, 14 kDa subunits; ligand sites at subunit interfaces; Cys-36 seen as cysteine sulfonic acid in crystals

TdcF [2] = molecular target: T1, TdcF; test: X-ray crystal structure, no ligand added (as isolated); format: binding; conditions: 1.6 Å; inter-subunit site C only; putative identity from density, threonine an alternative

T1 sequence (P0AGL2 whole entry): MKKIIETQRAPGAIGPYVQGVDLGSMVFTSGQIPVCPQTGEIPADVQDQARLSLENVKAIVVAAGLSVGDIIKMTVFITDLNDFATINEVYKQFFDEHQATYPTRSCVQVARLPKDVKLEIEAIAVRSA

Structure (SMILES): CCC(=O)O [PPI, propionate]
- X-ray crystal structure, crystal soak (TdcF [1]; 2.45 Å, inter-subunit sites B and C occupied): a propionate molecule could be placed with confidence in both

Structure (SMILES): N[C@@H](CO)C(=O)O [SER, serine]
- X-ray crystal structure, no ligand added (as isolated) (TdcF [2]): with serine as the ligand with its side-chain in two alternative conformations of equal occupancy

Structure (SMILES): CCC(=O)C(=O)O [2KT, 2-ketobutyrate]
- X-ray crystal structure, crystal soak (TdcF [1]; 1.6 Å, inter-subunit sites A, B and C occupied): clear density for a 2-ketobutyrate ligand in each of the three binding sites
